Our source for the IC90 values is patent US20230011869A1 (Hoffmann-La Roche Inc., priority 2018, published 2023).

Molecules are shown by their SMILES. Structures can show the parent of a compound that is named as a salt.

For one experiment, the system named is Acinetobacter baumannii ATCC17978. As to the kind of experiment: Antimicrobial susceptibility testing: 90% growth inhibitory concentration (IC90) determination, Iso-Sensitest broth. The format is cell-based. Conditions: 90% growth inhibitory concentration, Acinetobacter baumannii ATCC17978, Iso-Sensitest broth, OD 600 nm over 16 h; read-out: ATCC17978 IC90. Put shortly: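 A. baumannii ATCC17978 grown in Iso-Sensitest broth across 10 compound concentrations at 35±2 °C.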
With `COc1ccc(-c2cnc3c(Nc4ccc(C(=O)N5CCC(C(=O)NC(CN(C)C)C(=O)O)CC5)c(C)c4)nccn23)cc1F` (stereo not drawn) [Example 278, 3-(dimethylamino)-2-[[1-[4-[[3-(3-fluoro-4-methoxyphenyl)imidazo[1,2-a]pyrazin-8-yl]amino]-2-methylbenzoyl]piperidine-4-carbonyl]amino]propanoic acid], the IC90 was 3800 nM.

With `COc1ccc(-c2cnc3c(Nc4ccc(C(=O)N5CCC(C(=O)NCC6(O)CNC6)CC5)c(C)c4)nccn23)c(F)c1F` [Example 285, 1-[4-[[3-(2,3-difluoro-4-methoxyphenyl)imidazo[1,2-a]pyrazin-8-yl]amino]-2-methylbenzoyl]-N-[(3-hydroxyazetidin-3-yl)methyl]piperidine-4-carboxamide], the IC90 was found to be 71 nM.

As to `COc1ccc(-c2cnc3c(Nc4ccc(C(=O)N5CCC(C(=O)N6C[C@H](CO)[C@@H](O)[C@H](O)C6)CC5)c(C)c4)nccn23)c(F)c1F` [Example 296, [4-[[3-(2,3-difluoro-4-methoxyphenyl)imidazo[1,2-a]pyrazin-8-yl]amino]-2-methylphenyl]-[4-[(3R,4R,5R)-3,4-dihydroxy-5-(hydroxymethyl)piperidine-1-carbonyl]piperidin-1-yl]methanone], the IC90 amounted to 180 nM.

`COc1ccc(-c2cnc3c(Nc4ccc(C(=O)N5CCC(C(=O)NC[C@H](O)[C@@H](O)[C@H](O)[C@H](O)CO)CC5)c(C)c4)nccn23)c(F)c1F` [Example 300, 1-[4-[[3-(2,3-difluoro-4-methoxyphenyl)imidazo[1,2-a]pyrazin-8-yl]amino]-2-methylbenzoyl]-N-[(2S,3R,4R,5R)-2,3,4,5,6-pentahydroxyhexyl]piperidine-4-carboxamide]: the IC90 was determined as 210 nM.

Consider `COc1ccc(-c2cnc3c(Nc4ccc(C(=O)N5CCC(C(=O)NCCS(=O)(=O)O)CC5)c(C)c4)nccn23)cc1F` [Example 303, 2-[[1-[4-[[3-(3-fluoro-4-methoxyphenyl)imidazo[1,2-a]pyrazin-8-yl]amino]-2-methylbenzoyl]piperidine-4-carbonyl]amino]ethanesulfo-nic acid], for which the IC90 stood at 3500 nM.

`Cc1cc(Nc2nccn3c(-c4ccc(OCC#N)c(F)c4F)cnc23)ccc1C(=O)N1CCC(CCN)CC1` [Example 304, 2-[4-[8-[4-[4-(2-aminoethyl)piperidine-1-carbonyl]-3-methylanilino]imidazo[1,2-a]pyrazin-3-yl]-2,3-difluorophenoxy]acetonitrile]: the IC90 is 110 nM.

As for `C#CCOc1ccc(-c2cnc3c(Nc4ccc(C(=O)N5CCC(C(=O)NCCCNC)CC5)c(C)c4)nccn23)c(F)c1F` [Example 305, 1-[4-[[3-(2,3-difluoro-4-prop-2-ynoxyphenyl)imidazo[1,2-a]pyrazin-8-yl]amino]-2-methylbenzoyl]-N-[3-(methylamino)propyl]piperi-dine-4-carboxamide], the IC90 was determined as 100 nM.

As to `CNCC(=O)N1CCN(C(=O)c2ccc(Nc3nccn4c(-c5ccc(OC)c(F)c5Cl)cnc34)cc2C)CC1` [Example 307, 1-[4-[4-[[3-(2-chloro-3-fluoro-4-methoxyphenyl)imidazo[1,2-a]pyrazin-8-yl]amino]-2-methylbenzoyl]piperazin-1-yl]-2-(methylamino)ethanone; hy-drochloride], the IC90 was 97 nM.

`CNCC(=O)N1CCN(C(=O)c2ccc(Nc3nccn4c(-c5ccc(OC)c(F)c5F)cnc34)cc2C)CC1` [Example 308, 1-[4-[4-[[3-(2,3-difluoro-4-methoxyphenyl)imidazo[1,2-a]pyrazin-8-yl]amino]-2-methylbenzoyl]piperazin-1-yl]-2-(methylamino)ethanone; hy-drochloride]: the IC90 came out at 110 nM.

The same experiment, now with this note: Acinetobacter baumannii, ATCC17978, 16 h, read-out: ATCC17978 IC90, 90% growth inhibitory concentration, Acinetobacter baumannii ATCC17978, Iso-Sensitest broth, OD 600 nm over 16 h.
Take `Cc1cc(Nc2nccn3c(-c4ccc(OC(F)F)cc4)cnc23)ccc1C(=O)N1CCN(C(=O)c2ccc(C(=O)O)cc2)CC1` [Example 280, 4-[4-[4-[[3-[4-(difluoromethoxy)phenyl]imi-dazo[1,2-a]pyrazin-8-yl]amino]-2-methylbenzoyl]piperazine-1-carbonyl]benzoic acid]: the IC90 was 4500 nM.

Turning to `Cc1cc(Nc2nccn3c(-c4ccc(OC(F)F)cc4)cnc23)ccc1C(=O)N1CCN(C(=O)CN(C)CC(=O)O)CC1` [Example 281, 2-[[2-[4-[4-[[3-[4-(difluoromethoxy)phenyl]imi-dazo[1,2-a]pyrazin-8-yl]amino]-2-methylbenzoyl]piperazin-1-yl]-2-oxoethyl]-methylamino]acetic acid], the IC90 was 4700 nM.

For `COc1ccc(-c2cnc3c(Nc4ccc(C(=O)N5CCC(C(=O)NCC6(O)CCNC6)CC5)c(C)c4)nccn23)c(F)c1F` (stereo not drawn) [Example 286, 1-[4-[[3-(2,3-difluoro-4-methoxyphenyl)imidazo[1,2-a]pyrazin-8-yl]amino]-2-methylbenzoyl]-N-[(3-hydroxypyrrolidin-3-yl)methyl]piperidine-4-carboxamide; hydrochloride], the IC90 is 73 nM.

`COc1ccc(-c2cnc3c(Nc4ccc(C(=O)N5CCC(C(=O)NCC(O)CN)CC5)c(C)c4)nccn23)c(F)c1F` (stereo not drawn) [Example 291, N-(3-amino-2-hydroxypropyl)-1-[4-[[3-(2,3-difluoro-4-methoxyphenyl)imidazo[1,2-a]pyrazin-8-yl]amino]-2-methylbenzoyl]piperidine-4-carboxamide; hydrochloride]: the IC90 was found to be 110 nM.

Regarding `Cc1cc(Nc2nccn3c(-c4ccc(OC(F)F)cc4)cnc23)ccc1C(=O)N1CCC(C(=O)NC[C@H]2CNC(=O)O2)CC1` [Example 298, 1-[4-[[3-[4-(difluoromethoxy)phenyl]imi-dazo[1,2-a]pyrazin-8-yl]amino]-2-methylbenzoyl]-N-[[(5S)-2-oxo-1,3-oxazolidin-5-yl]methyl]piperidine-4-carboxamide], the IC90 was found to be 200 nM.

`Cc1cc(Nc2nccn3c(-c4ccc(OC(F)F)cc4)cnc23)ccc1C(=O)N1CCC(C(=O)NCC(O)CN)CC1` (stereo not drawn) [Example 299, N-(3-amino-2-hydroxypropyl)-1-[4-[[3-[4-(difluoromethoxy)phenyl]imi-dazo[1,2-a]pyrazin-8-yl]amino]-2-methylbenzoyl]piperidine-4-carboxamide; hydrochloride]: the IC90 was determined as 200 nM.

For the molecule `Cc1cc(Nc2nccn3c(-c4ccc(OC(F)F)cc4)cnc23)ccc1C(=O)N1CCC(N(C)CCN(C)C)CC1` [Example 301, [4-[[3-[4-(difluoromethoxy)phenyl]imi-dazo[1,2-a]pyrazin-8-yl]amino]-2-methylphenyl]-[4-[2-(dimethylamino)ethyl-methylamino]piperidin-1-yl]methanone], the IC90 was 720 nM.

On to `Cc1cc(Nc2nccn3c(-c4ccc(OC(F)F)cc4)cnc23)ccc1C(=O)N1CCC(C(=O)NCC2CN(S(C)(=O)=O)C2)CC1` [Example 306, 1-[4-[[3-[4-(difluoromethoxy)phenyl]imi-dazo[1,2-a]pyrazin-8-yl]amino]-2-methylbenzoyl]-N-[(1-methylsulfonylazetidin-3-yl)methyl]piperidine-4-carboxamide], for which the IC90 was 95 nM.

Turning to `CCc1cc(Nc2nccn3c(-c4ccc(OCC#N)c(F)c4F)cnc23)ccc1C(=O)N1CCC(CCN)CC1` [Example 309, 2-[4-[8-[4-[4-(2-aminoethyl)piperidine-1-carbonyl]-3-ethylanilino]imidazo[1,2-a]pyrazin-3-yl]-2,3-difluorophenoxy]acetonitrile; formic acid], the IC90 amounted to 130 nM.

On to `Cc1cc(Nc2nccn3c(-c4ccc(OC(F)F)cc4)cnc23)ccc1C(=O)N1CCC(C(=O)NCC2(F)CNC2)CC1` [Example 310, 1-[4-[[3-[4-(difluoromethoxy)phenyl]imi-dazo[1,2-a]pyrazin-8-yl]amino]-2-methylbenzoyl]-N-[(3-fluoroazetidin-3-yl)methyl]piperidine-4-carboxamide; hydrochloride], for which the IC90 stood at 140 nM.

Turning to `CN[C@@H](C)C(=O)N1CCN(C(=O)c2ccc(Nc3nccn4c(-c5ccc(OC(F)F)cc5)cnc34)cc2C)CC1` [Example 311, (2S)-1-[4-[4-[[3-[4-(difluoromethoxy)phenyl]imi-dazo[1,2-a]pyrazin-8-yl]amino]-2-methylbenzoyl]piperazin-1-yl]-2-(methylamino)propan-1-one; hydrochloride], the IC90 turned out to be 190 nM.

For the molecule `Cc1cc(Nc2nccn3c(-c4ccc(OC(F)F)cc4)cnc23)ccc1C(=O)N1CCN(C(=O)C2CC3(CNC3)C2)CC1` [Example 312, [4-(2-azaspiro[3.3]heptane-6-carbonyl)piperazin-1-yl]-[4-[[3-[4-(difluoromethoxy)phenyl]imi-dazo[1,2-a]pyrazin-8-yl]amino]-2-methylphenyl]methanone; hy-drochloride], the IC90 worked out at 220 nM.

Regarding `Cc1cc(Nc2nccn3c(-c4ccc(OC(F)F)cc4)cnc23)ccc1C(=O)N1CCC(C(=O)N(C)CC(O)CO)CC1` (stereo not drawn) [Example 313, 1-[4-[[3-[4-(difluoromethoxy)phenyl]imi-dazo[1,2-a]pyrazin-8-yl]amino]-2-methylbenzoyl]-N-(2,3-dihydroxypropyl)-N-methylpiperidine-4-carboxamide], the IC90 amounted to 230 nM.

With `CCNCC(=O)N1CCN(C(=O)c2ccc(Nc3nccn4c(-c5ccc(OC(F)F)cc5)cnc34)cc2C)CC1` [Example 314, 1-[4-[4-[[3-[4-(difluoromethoxy)phenyl]imi-dazo[1,2-a]pyrazin-8-yl]amino]-2-methylbenzoyl]piperazin-1-yl]-2-(ethylamino)ethanone; hydro-chloride], the IC90 amounted to 230 nM.

With `Cc1cc(Nc2nccn3c(-c4ccc(OC(F)F)cc4)cnc23)ccc1C(=O)N1CCN(C(=O)[C@H]2CNCCO2)CC1` [Example 315, [4-[[3-[4-(difluoromethoxy)phenyl]imi-dazo[1,2-a]pyrazin-8-yl]amino]-2-methylphenyl]-[4-[(2R)-morpholine-2-carbonyl]piperazin-1-yl]methanone; hydrochloride], the IC90 was determined as 240 nM.
